Experiments:
[1] = system: HT29 (a human colon cancer cell line) tumor xenograft; assay: Whole body fluorescence imaging of HT29 tumor xenograft bearing mouse (IVIS imager); type: in vivo; details: 10 nmol
Description: HT29 (a human colon cancer cell line) tumor xenograft bearing mouse was injected with 10 nmol of 61 and imaged with IVIS imager (ex=745 nm, em=ICG, exposure time=1 s) at different time intervals.
(§1) HT29 (a human colon cancer cell line) and HCC827 (a human lung cancer cell line) tumor xenograft bearing mouse was injected with 10 nmol of 61 and imaged with IVIS imager (ex=745 nm, em=ICG, exposure time=1 s) at different time intervals.

[2] = system: SKRC52 human renal tumor xenograft; assay: Whole body fluorescence imaging of SKRC52 human renal tumor xenograft bearing mouse (IVIS imager); type: in vivo; details: 10 nmol, within 2-24 hours after administering to the animal
Description: SKRC52 human renal tumor xenograft bearing mouse was injected with 10 nmol of 54 and imaged with IVIS imager (ex=745 nm, em=ICG, exposure time=1 s) at different time intervals.
SKRC52 human renal tumor xenograft bearing mouse was injected with 10 nmol of 55 and imaged with IVIS imager (ex=745 nm, em=ICG, exposure time=1 s) at different time intervals.
SKRC52 human renal tumor xenograft bearing mouse was injected with 10 nmol of 60 and imaged with IVIS imager (ex=745 nm, em=ICG, exposure time=[…]) at different time intervals.
SKRC52 human renal tumor xenograft bearing mouse was injected with 10 nmol of 61 and imaged with IVIS imager (ex=745 nm, em=ICG, exposure time=[…]) at different time intervals.
SKRC52 human renal tumor xenograft bearing mouse was injected with 10 nmol of 62 and imaged with IVIS imager (ex=745 nm, em=ICG, exposure time=1 s) at different time intervals.
SKRC52 human renal tumor xenograft bearing mouse was injected with 10 nmol of 65 and imaged with IVIS imager (ex=745 nm, em=ICG, exposure time=1 s) at different time intervals.
SKRC52 human renal tumor xenograft bearing mouse was injected with 10 nmol of 69 and imaged with IVIS imager (ex=745 nm, em=ICG, exposure time=1 s) at different time intervals.
SKRC52 human renal tumor xenograft bearing mouse was injected with 10 nmol of 70 and imaged with IVIS imager (ex=745 nm, em=ICG, exposure time=1 s) at different time intervals.
SKRC52 human renal tumor xenograft bearing mouse was injected with 10 nmol 72 and imaged with IVIS imager (ex=745 nm, em=ICG, exposure time=1 s) at different time intervals
SKRC52 human renal tumor xenograft bearing mouse was injected with 10 nmol of 76 and imaged with IVIS imager (ex=745 nm, em=ICG, exposure time=1 s) at different time intervals
SKRC52 human renal tumor xenograft bearing mouse was injected with 10 nmol of 77 and imaged with IVIS imager (ex=745 nm, em=ICG, exposure time=1 s) at different time intervals
SKRC52 human renal tumor xenograft bearing mouse was injected with 10 nmol of 80 and imaged with IVIS imager (ex=745 nm, em=ICG, exposure time=1 s) at different time intervals
SKRC52 human renal tumor xenograft bearing mouse was injected with 10 nmol of 81 and imaged with IVIS imager (ex=745 nm, em=ICG, exposure time=1 s) at different time intervals
SKRC52 human renal tumor xenograft bearing mouse was injected with 10 nmol of 85 and imaged with IVIS imager (ex=745 nm, em=ICG, exposure time=1 s) at different time intervals
SKRC52 human renal tumor xenograft bearing mouse was injected with 10 nmol of 86 and imaged with IVIS imager (ex=745 nm, em=ICG, exposure time=1 s) at different time intervals
SKRC52 human renal tumor xenograft bearing mouse was injected with 10 nmol of 87 and imaged with IVIS imager (ex=745 nm, em=ICG, exposure time=1 s) at different time intervals
SKRC52 human renal tumor xenograft bearing mouse was injected with 10 nmol of 88 and imaged with IVIS imager (ex=745 nm, em=ICG, exposure time=1 s) at different time intervals
SKRC52 human renal tumor xenograft bearing mouse was injected with 10 nmol of 89 and imaged with IVIS imager (ex=745 nm, em=ICG, exposure time=1 s) at different time intervals
SKRC52 human renal tumor xenograft bearing mouse was injected with 10 nmol of 90 and imaged with IVIS imager (ex=745 nm, em=ICG, exposure time=1 s) at different time intervals
SKRC52 human renal tumor xenograft bearing mouse was injected with 10 nmol of 93 and imaged with IVIS imager (ex=745 nm, em=ICG, exposure time=1 s) at different time intervals
SKRC52 human renal tumor xenograft bearing mouse was injected with 10 nmol of 95 and imaged with IVIS imager (ex=745 nm, em=ICG, exposure time=1 s) at different time intervals
SKRC52 human renal tumor xenograft bearing mouse was injected with 10 nmol of 99 and imaged with IVIS imager (ex=745 nm, em=ICG, exposure time=1 s) at different time intervals […]

[3] = system: HCC827 (a human lung cancer cell line) tumor xenograft; assay: Whole body fluorescence imaging of HCC827 tumor xenograft bearing mouse (IVIS imager); type: in vivo; details: 10 nmol
Description: HCC827 (a human lung cancer cell line) tumor xenograft bearing mouse was injected with 10 nmol of 61 and imaged with IVIS imager (ex=745 nm, em=ICG, exposure time=1 s) at different time intervals.
as §1

[4] = system: CAIX expressing SKRC52 tumor; assay: OTL410 fluorescence-guided resection of CAIX expressing SKRC52 tumor from nude mice; type: in vivo; details: 1 nmol/mouse, euthanized 24 h later
Description: OTL410 was administered at a dose of 1 nmol/mouse in 100 μl of 5% aqueous dextrose, and the mouse was euthanized 24 h later. FIG. 53A illustrates the image acquired after ex vivo whole-body fluorescence imaging and skin around the tumor was removed. FIG. 53B illustrates, guided by the fluorescence image, the image acquired after the tumor was resected.
(§2) Tumor Implantation and imaging: For establishing subcutaneous tumors from SKRC52, HT29 and 22RV1 cells, female nude mice were inoculated subcutaneously with 5×10^6 cells in 150 μl of 50% matrigel on the flank. […] Tumor sizes were measured using a digital calipers and tumor volumes were calculated using the formula (L/2)×W2 where L and W represent the length and width of the tumor. […] For the biodistribution studies, mice were euthanized at 3 h, 12 h or 24 h after injection of OTL410, and fluorescence images were collected ex vivo using the same instrument and imaging parameters described above. For quantification of tumor to background ratios, region of interest (ROI) was drawn for tumor and each tissue of interest and the total and mean fluorescence intensity were calculated using the proprietary software from Spectral Instruments. TBR for each organ and respective standard deviations were calculated using Excel software.

[5] = system: MDA-MB-231, a triple negative breast cancer cell line; assay: OTL410 accumulation in MDA-MB-231 tumor xenografts (AMI imager); type: in vivo; details: MDA-MB-231, 2 nmol/mouse, 4 h
Description: (§3) FIGS. 54A and 54B illustrate KB, a derivative of HeLa cervical cancer cell line. FIGS. 54C and 54D illustrate MDA-MB-231, a triple negative breast cancer cell line. FIGS. 54E and 54F illustrate FaDu, a head & neck cancer cell line; and FIGS. 54G and 54H illustrate HT29, a colorectal cancer cell line. OTL410 was administered at a dose of 2 nmol/mouse in 100 μl of 5% aqueous dextrose, and the images were collected 4 h later using an AMI imager with the mice under anesthesia.
as §2

[6] = system: KB, a derivative of HeLa cervical cancer cell line; assay: OTL410 accumulation in KB tumor xenografts (AMI imager); type: in vivo; details: 2 nmol/mouse, 4 h
Description: as §3, §2

SKRC52 xenografts = assay: Fluorescence imaging of tumor accumulation of OTL410 in nude mice bearing SKRC52 xenografts (AMI imager); type: in vivo, mouse
Description: FIG. 49 illustrates the time course of tumor accumulation by OTL410 by fluorescence imaging of nude mice bearing SKRC52 xenografts. After intravenous administration of 1 nmol of the conjugate in 100 μl of 5% aqueous dextrose, mice were anesthetized by isoflurane right before collecting each image. Tumor accumulation is evident as early as 15 min after injection of the conjugate, reaching peak intensity by 4 h.
Mice were euthanized by CO2 inhalation 3 h after intravenous administration of indicated concentrations of the conjugate, and epifluorescence images were collected ex vivo (Ex=745 nm, Em=810 nm FOV=25, binning 2, lamp power=55%). Five mice/per group were used for doses 0.25 nmol to 20 nmol, and image of 1 mouse representing each dose is presented.
Tumor Implantation and imaging: For establishing subcutaneous tumors from SKRC52, HT29 and 22RV1 cells, female nude mice were inoculated subcutaneously with 5×10^6 cells in 150 μl of 50% matrigel on the flank. KB tumors were established by inoculating female nude mice subcutaneously with 1×10^6 KB cells in 100 μl of folate deficient RPMI 1640 media. MDA MB-231 tumors were established by inoculating female nude mice subcutaneously with 2×10^6 cells in 100 μl of RPMI 1640 media. Tumor sizes were measured using a digital calipers and tumor volumes were calculated using the formula (L/2)×W2 where L and W represent the length and width of the tumor. When the tumors reached desired size (500-700 mm3), mice were randomly assigned to groups of 4-5. Each mouse was injected with varying concentrations of OTL410 in 100 μl of 5% aqueous dextrose. For the time course study, mice were imaged under anesthesia at varying time points starting at 15 minutes and up to 24 h using a Spectral AMI imaging system (Spectral Instruments Imaging) using the imaging parameters t=1 sec, f stop=2, FOV=25, binning=2, and lamp power=55%. For the biodistribution studies, mice were euthanized at 3 h, 12 h or 24 h after injection of OTL410, and fluorescence images were collected ex vivo using the same instrument and imaging parameters described above. For quantification of tumor to background ratios, region of interest (ROI) was drawn for tumor and each tissue of interest and the total and mean fluorescence intensity were calculated using the proprietary software from Spectral Instruments. TBR for each organ and respective standard deviations were calculated using Excel software.

SKRC52 cells = assay: Uptake of OTL410 by SKRC cells in vitro by fluorescence microscopy; type: cell-based, human; details: 100 nmols, 2 h
Description: SKRC52 cells were incubated with 100 nmols of OTL410 for 2 h, and fluorescence images were acquired after removing unbound conjugate, and washing cells 2× with media.
For competition studies, 50,000 SKRC cells were grown on 8 well glass bottom slides for 48 h. Spent media was removed, and the cells were incubated with 100 nmols of OTL410 in 500 μl of fresh media alone or in presence of 200× non-fluorescent ligand (i.e. OTL410 without the dye) in a cell culture incubator for 2 h. Cells were then washed 2× with 500 μl of media, and after the second step of washing, 500 μl of serum free media was added to the cells. These cells were then imaged using a Nikon wide-field microscope.

[7] = system: FaDu, a head & neck cancer cell line; assay: OTL410 accumulation in FaDu tumor xenografts (AMI imager); type: in vivo; details: 2 nmol/mouse, 4 h
Description: as §3

[8] = system: HT29, a colorectal cancer cell line; assay: OTL410 accumulation in HT29 tumor xenografts (AMI imager); type: in vivo; details: HT29, 2 nmol/mouse, 4 h
Description: as §3, §2

[9] = 1 nmol intravenous in 5% aqueous dextrose

| Structure (SMILES) | accumulation in CA IX-negative tumor xenografts of colon cancer versus other healthy tissues [1] | whole-body imaging data [2] | accumulation in CA IX-negative tumor xenografts of lung cancer versus other healthy tissues [3] | fluorescence-guided tumor resection [4] | accumulation in tumor xenografts [5] | accumulation in tumor xenografts [6] | dose dependence of accumulation in SKRC52 tumor xenografts (SKRC52 xenografts; 0.25 nmol to 20 nmol intravenous, 3 h, ex vivo images) | time after injection at which tumor accumulation is evident (SKRC52 xenografts; [9]) [min] | time of peak tumor fluorescence intensity (SKRC52 xenografts; [9]) [h] | tumor fluorescence intensity at 8 h (SKRC52 xenografts; 1 nmol intravenous, 8 h) | tumor fluorescence intensity maintained after 24 h (SKRC52 xenografts; 1 nmol intravenous, 24 h) | uptake by SKRC cells in vitro (SKRC52 cells) | accumulation in tumor xenografts [7] | accumulation in tumor xenografts [8] |
| --- | --- | --- | --- | --- | --- | --- | --- | --- | --- | --- | --- | --- | --- | --- |
| CC1(C)C(/C=C/C2=C(Oc3ccc(C[C@H](NC(=O)CCOCCOCCNC(=O)CCS(=O)(=O)c4c(F)c(F)c(S(N)(=O)=O)c(F)c4NC4CCCCCCC4)C(=O)O)cc3)C(=C/C=C3/N(CCCCS(=O)(=O)O)c4ccc(S(=O)(=O)O)cc4C3(C)C)/CCC2)=[N+](CCCCS(=O)(=O)[O-])c2ccc(S(=O)(=O)O)cc21 [Compound 61, 4-(2-((E)-2-((E)-2-(4-((S)-2-carboxy-16-((2-(cyclooctylamino)-3,5,6-trifluoro-4-sulfamoylphenyl)sulfonyl)-4,14-dioxo-7,10-dioxa-3,13-diazahexadecyl)phenoxy)-3-(2-((E)-3,3-dimethyl-5-sulfo-1-(4-sulfobutyl)indolin-2-ylidene)ethylidene)cyclohex-1-en-1-yl)vinyl)-3,3-dimethyl-5-sulfo-3H-indol-1-ium-1-yl)butane-1-sulfonate] | selectively accumulated | very good | selectively accumulated |  |  |  |  |  |  |  |  |  |  |  |
| CC1(C)C(/C=C/C2=C(Oc3ccc(C[C@H](NC(=O)CCOCCOCCNC(=O)CCCS(=O)(=O)c4c(F)c(F)c(S(N)(=O)=O)c(F)c4NC4CCCCCCC4)C(=O)O)cc3)C(=C/C=C3/N(CCCCS(=O)(=O)O)c4ccc(S(=O)(=O)O)cc4C3(C)C)/CCC2)=[N+](CCCCS(=O)(=O)[O-])c2ccc(S(=O)(=O)O)cc21 [OTL410] |  |  |  | complete removal of the tumor with no fluorescent cells left behind | tumor-specific accumulation | tumor-specific accumulation | dose dependent accumulation | ≤ 15 | ≤ 4 | No loss in fluorescence intensity | ~80 % of peak intensity | uptake | tumor-specific accumulation | tumor-specific accumulation |
